# According to PubChem BioAssay (NCI):
#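 Protocol summary: plate cells (96-well), add compound at 5 concentrations, incubate 48 h, interpolate endpoints linearly. TGI: concentration producing complete growth inhibition.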
# Assays:
# Assay in all cases: NCI-60 cell line screen, 48 h
# 786-0 renal = tested on: 786-0 renal
# A498 renal = tested on: A498 renal
# A549 NSCLC = tested on: A549 NSCLC
# ACHN renal = tested on: ACHN renal
# BT-549 breast = tested on: BT-549 breast
# CAKI-1 renal = tested on: CAKI-1 renal
# CCRF-CEM leukemia = tested on: CCRF-CEM leukemia
# COLO 205 colon = tested on: COLO 205 colon
# DU-145 prostate = tested on: DU-145 prostate
# EKVX NSCLC = tested on: EKVX NSCLC
# HCC-2998 colon = tested on: HCC-2998 colon
# HCT-116 colon = tested on: HCT-116 colon
# HCT-15 colon = tested on: HCT-15 colon
# HL-60(TB) leukemia = tested on: HL-60(TB) leukemia
# HOP-62 NSCLC = tested on: HOP-62 NSCLC
# HOP-92 NSCLC = tested on: HOP-92 NSCLC
# HS 578T breast = tested on: HS 578T breast
# HT29 colon = tested on: HT29 colon
# IGROV1 ovarian = tested on: IGROV1 ovarian
# K-562 leukemia = tested on: K-562 leukemia
# KM12 colon = tested on: KM12 colon
# LOX IMVI melanoma = tested on: LOX IMVI melanoma
# M14 melanoma = tested on: M14 melanoma
# MALME-3M melanoma = tested on: MALME-3M melanoma
# MCF7 breast = tested on: MCF7 breast
# MDA-MB-231 breast = tested on: MDA-MB-231 breast
# MDA-MB-435 = tested on: MDA-MB-435
# MDA-N = tested on: MDA-N
# MOLT-4 leukemia = tested on: MOLT-4 leukemia
# NCI-H226 lung = tested on: NCI-H226 lung
# NCI-H23 lung = tested on: NCI-H23 lung
# NCI-H460 lung = tested on: NCI-H460 lung
# NCI-H522 lung = tested on: NCI-H522 lung
# NCI/ADR-RES ovarian = tested on: NCI/ADR-RES ovarian
# OVCAR-3 ovarian = tested on: OVCAR-3 ovarian
# OVCAR-4 ovarian = tested on: OVCAR-4 ovarian
# OVCAR-5 ovarian = tested on: OVCAR-5 ovarian
# OVCAR-8 ovarian = tested on: OVCAR-8 ovarian
# PC-3 prostate = tested on: PC-3 prostate
# RPMI-8226 leukemia = tested on: RPMI-8226 leukemia
# RXF 393 renal = tested on: RXF 393 renal
# SF-268 CNS = tested on: SF-268 CNS
# SF-295 CNS = tested on: SF-295 CNS
# SF-539 CNS = tested on: SF-539 CNS
# SK-MEL-2 melanoma = tested on: SK-MEL-2 melanoma
# SK-MEL-28 melanoma = tested on: SK-MEL-28 melanoma
# SK-MEL-5 melanoma = tested on: SK-MEL-5 melanoma
# SK-OV-3 ovarian = tested on: SK-OV-3 ovarian
# SN12C renal = tested on: SN12C renal
# SNB-19 CNS = tested on: SNB-19 CNS
# SNB-75 CNS = tested on: SNB-75 CNS
# SR leukemia = tested on: SR leukemia
# SW-620 colon = tested on: SW-620 colon
# T-47D breast = tested on: T-47D breast
# TK-10 renal = tested on: TK-10 renal
# U251 CNS = tested on: U251 CNS
# UACC-257 melanoma = tested on: UACC-257 melanoma
# UACC-62 melanoma = tested on: UACC-62 melanoma
# UO-31 renal = tested on: UO-31 renal
smiles,measurement,setting,value
COc1ccc(/C=C/C(=O)Oc2ccc(/C=C3\CCCCC3=O)cc2)cc1,TGI,786-0 renal,> 100 µM
same,TGI,A498 renal,> 100 µM
same,TGI,A549 NSCLC,> 100 µM
same,TGI,ACHN renal,> 100 µM
same,TGI,BT-549 breast,> 100 µM
same,TGI,CAKI-1 renal,> 100 µM
same,TGI,CCRF-CEM leukemia,6.77 µM
same,TGI,COLO 205 colon,> 93.2 µM
same,TGI,DU-145 prostate,> 100 µM
same,TGI,EKVX NSCLC,> 100 µM
same,TGI,HCC-2998 colon,> 72.3 µM
same,TGI,HCT-116 colon,> 95.4 µM
same,TGI,HCT-15 colon,> 100 µM
same,TGI,HL-60(TB) leukemia,> 83.6 µM
same,TGI,HOP-62 NSCLC,> 77.3 µM
same,TGI,HOP-92 NSCLC,> 100 µM
same,TGI,HS 578T breast,> 100 µM
same,TGI,HT29 colon,26.3 µM
same,TGI,IGROV1 ovarian,> 100 µM
same,TGI,K-562 leukemia,> 100 µM
same,TGI,KM12 colon,> 100 µM
same,TGI,LOX IMVI melanoma,> 100 µM
same,TGI,M14 melanoma,> 100 µM
same,TGI,MALME-3M melanoma,> 100 µM
same,TGI,MCF7 breast,> 100 µM
same,TGI,MDA-MB-231 breast,> 83.9 µM
same,TGI,MDA-MB-435,> 100 µM
same,TGI,MDA-N,> 100 µM
same,TGI,MOLT-4 leukemia,7.51 µM
same,TGI,NCI-H226 lung,> 100 µM
same,TGI,NCI-H23 lung,> 100 µM
same,TGI,NCI-H460 lung,> 100 µM
same,TGI,NCI-H522 lung,> 100 µM
same,TGI,NCI/ADR-RES ovarian,> 100 µM
same,TGI,OVCAR-3 ovarian,> 100 µM
same,TGI,OVCAR-4 ovarian,> 90.2 µM
same,TGI,OVCAR-5 ovarian,> 100 µM
same,TGI,OVCAR-8 ovarian,> 100 µM
same,TGI,PC-3 prostate,> 100 µM
same,TGI,RPMI-8226 leukemia,13.9 µM
same,TGI,RXF 393 renal,> 100 µM
same,TGI,SF-268 CNS,> 69.5 µM
same,TGI,SF-295 CNS,49.4 µM
same,TGI,SF-539 CNS,> 100 µM
same,TGI,SK-MEL-2 melanoma,> 100 µM
same,TGI,SK-MEL-28 melanoma,> 100 µM
same,TGI,SK-MEL-5 melanoma,> 100 µM
same,TGI,SK-OV-3 ovarian,> 100 µM
same,TGI,SN12C renal,> 100 µM
same,TGI,SNB-19 CNS,> 100 µM
same,TGI,SNB-75 CNS,> 100 µM
same,TGI,SR leukemia,> 100 µM
same,TGI,SW-620 colon,> 100 µM
same,TGI,T-47D breast,> 100 µM
same,TGI,TK-10 renal,> 100 µM
same,TGI,U251 CNS,> 100 µM
same,TGI,UACC-257 melanoma,> 100 µM
same,TGI,UACC-62 melanoma,> 100 µM
same,TGI,UO-31 renal,> 100 µM
Cc1cc2c(C(C)C)c(O)c(O)c(C=NCC3CCCN4CCCCC34)c2cc1-c1cc2c(C=NCC3CCCN4CCCCC34)c(O)c(O)c(C(C)C)c2cc1C (stereo not drawn),TGI,786-0 renal,> 67.9 µM
same,TGI,A498 renal,> 61.7 µM
same,TGI,A549 NSCLC,> 75.1 µM
same,TGI,ACHN renal,17.9 µM
same,TGI,BT-549 breast,36.4 µM
same,TGI,CAKI-1 renal,14.6 µM
same,TGI,CCRF-CEM leukemia,7.75 µM
same,TGI,COLO 205 colon,12.3 µM
same,TGI,DU-145 prostate,> 64.3 µM
same,TGI,EKVX NSCLC,31.8 µM
same,TGI,HCC-2998 colon,46.3 µM
same,TGI,HCT-116 colon,> 100 µM
same,TGI,HCT-15 colon,41.3 µM
same,TGI,HL-60(TB) leukemia,9.62 µM
same,TGI,HOP-62 NSCLC,> 38.7 µM
same,TGI,HOP-92 NSCLC,> 100 µM
same,TGI,HS 578T breast,54.5 µM
same,TGI,HT29 colon,13.3 µM
same,TGI,IGROV1 ovarian,21.6 µM
same,TGI,K-562 leukemia,38.2 µM
same,TGI,KM12 colon,17.7 µM
same,TGI,LOX IMVI melanoma,> 49.1 µM
same,TGI,M14 melanoma,33.9 µM
same,TGI,MALME-3M melanoma,30.2 µM
same,TGI,MCF7 breast,37 µM
same,TGI,MDA-MB-231 breast,14.7 µM
same,TGI,MDA-MB-435,25.8 µM
same,TGI,MDA-N,20.9 µM
same,TGI,MOLT-4 leukemia,20 µM
same,TGI,NCI-H226 lung,43.2 µM
same,TGI,NCI-H23 lung,27.1 µM
same,TGI,NCI-H460 lung,38.7 µM
same,TGI,NCI-H522 lung,11.3 µM
same,TGI,NCI/ADR-RES ovarian,20.6 µM
same,TGI,OVCAR-3 ovarian,29 µM
same,TGI,OVCAR-4 ovarian,43.3 µM
same,TGI,OVCAR-5 ovarian,38.8 µM
same,TGI,OVCAR-8 ovarian,19 µM
same,TGI,PC-3 prostate,26.3 µM
same,TGI,RPMI-8226 leukemia,58.5 µM
same,TGI,RXF 393 renal,22.6 µM
same,TGI,SF-268 CNS,19.1 µM
same,TGI,SF-295 CNS,25.9 µM
same,TGI,SF-539 CNS,85.9 µM
same,TGI,SK-MEL-2 melanoma,31.5 µM
same,TGI,SK-MEL-28 melanoma,39.5 µM
same,TGI,SK-MEL-5 melanoma,15.5 µM
same,TGI,SK-OV-3 ovarian,18.1 µM
same,TGI,SN12C renal,17.1 µM
same,TGI,SNB-19 CNS,69.9 µM
same,TGI,SNB-75 CNS,31.3 µM
same,TGI,SR leukemia,> 100 µM
same,TGI,SW-620 colon,> 56.1 µM
same,TGI,T-47D breast,> 31 µM
same,TGI,TK-10 renal,32.5 µM
same,TGI,U251 CNS,21.5 µM
same,TGI,UACC-257 melanoma,51.9 µM
same,TGI,UACC-62 melanoma,39.3 µM
same,TGI,UO-31 renal,> 45.5 µM
